Data as given in patent US20250302728A1, “FRAGRANCE COMPOSITIONS AND PRODUCTS CONVEYING A POSITIVE MOOD” (SYMRISE AG, priority 2022, published 2025).

Columns and labels:
subject's mood [1] = test: Actimood scoring (correlation of EmoChar and IRT values); type: in vivo, human
Method: (§1) 1. Sensorial and Emotional Evaluation of Fragrance Raw Materials Each fragrance was evaluated by 30 subjects. At each appointment, the subject discovered fragrances in one sequence of four fragrances and two sequences of three fragrances separated by a 10-minute break.
(§2) For each fragrance, the subject discovered each fragrance on a card strip for 10 seconds. Between each product, a rest-period of 2 minutes was carried out during which the subject smelt their own body odour by smelling their wrist and the subject drank a little bit of water as well.
Emochar™ is a system of emotional characterization, scoring 7 main emotional dimensions from 0 to 10: • Stimulation: focus, attention, and awakening. • Relaxation: serenity, relaxation and appeasing. • Sensual: arousing, sexy and erotic. • Pleasure: liking, “gourmand” and satisfaction. • Tenderness: gentleness and softness. • Joy: excitement, fun and enthusiasm. • Self-esteem: confidence and assurance
Actimood scores are based on a correlation of EmoChar™ and IRT values. The scores are classified on a scale from 0 (low impact on subject's mood) to 3 (high impact on subject's mood).
Each score is obtained according to an algorithm, mixing verbal and non-verbal responses of volunteers to a specific product, or stimulus in a given context. The algorithm was developed from extensive field data, and in accordance with scientific literature and validated biobehavioral patterns associated to various emotional states.

subject's mood [2] = test: Implicit response test (IRT); type: in vivo, human; design: scale not given here
Method: as §1
During those appointments, the subjects smelt the fragrances in a random way.
as §2
The evaluation is carried out in standardized lighting conditions and under a monitored temperature (temperature 21±1.5° C.).
Implicit response tests (IRTs) are a family of tests and assess the subjects' immediate, “gut instinct” responses the fragrance raw materials.
The alleged underlying processes are based on how neurosciences describe the way our brain processes information. Indeed, our brain processes information through two systems: System 2, which is slow and processes conscious information, and System 1, which is fast and processes non-conscious information.
The IRT tests are performed at a computer, where the following words appear on the computer screen: • Energizing • Relaxing • Attractive • Sensual • Joyful • Protective • Confident • Fresh • Well-being
The subject has to click on the screen with the computer mouse to indicate their accordance or not of the word with the tested fragrance. In addition, the times to click the button are recorded.

[3] = relaxing and sleep enhancing mood (Composition 1, Table 3), scale 0 (low impact on subject's mood) to 3 (high impact)
[4] = ingredients of the fragrance composition conveying an attractive mood (Table 2)
[5] = attractive mood (Table 11), scale 0 (low impact) to 3 (high impact)
[6] = relaxing mood (Composition 2, Table 4), scale 0 (low impact) to 3 (high impact)
[7] = ingredients of the fragrance composition conveying a fresh mood (Table 1)
[8] = fresh mood (Table 12), scale 0 (low impact) to 3 (high impact)
[9] = joyful mood (Table 6), scale 0 (low impact) to 3 (high impact)
[10] = self-confident mood (Table 9), scale 0 (low impact) to 3 (high impact)
[11] = energizing mood (Table 7), scale 0 (low impact) to 3 (high impact)
[12] = well-being mood (Table 10), scale 0 (low impact) to 3 (high impact)
[13] = sensual mood (Table 8), scale 0 (low impact) to 3 (high impact)
[14] = protective mood (Table 5), scale 0 (low impact) to 3 (high impact)

CC(C)CCC1CCC(O)CC1 (stereo not drawn) [SYMROSE ®, 4-Isopentylcyclohexanol]
Actimood score (subject's mood [1]; [3]): 2

O=c1ccc2ccccc2o1 [COUMARIN, chromen-2-one]
IRT Score (subject's mood [2]; [4]): 1347 | Actimood score (subject's mood [1]; [5]): 3 | Actimood score (subject's mood [1]; [6]): 3

CC(C=O)Cc1ccc(C(C)C)cc1 (stereo not drawn) [CYCLAMEN ALDEHYDE, 3-(4-isopropylphenyl)-2-methyl-propanal]
IRT Score (subject's mood [2]; [7]): 1005 | Actimood score (subject's mood [1]; [8]): 3

CCCCCCC1OC(=O)CC1C (stereo not drawn) [APRIFLOREN ®, 5-Hexyldihydro-4-methylfuran-2(3H)-one]
Actimood score (subject's mood [1]; [9]): 2 | Actimood score (subject's mood [1]; [10]): 2

CC(C)=CCC/C(C)=C/C=O [CITRAL FF, (2E)-3,7-Dimethylocta-2,6-dienal]
IRT Score (subject's mood [2]; [7]): 2393 | Actimood score (subject's mood [1]; [11]): 3 | Actimood score (subject's mood [1]; [8]): 3

CC/C=C/CCO [HEXENOL CIS-3 10% DPG, Hexenol]
Actimood score (subject's mood [1]; [12]): 0

C=CC(C)CCCC(C)(C)O (stereo not drawn) [DIHYDRO MYRCENOL, 2,6-dimethyloct-7-en-2-ol]
IRT Score (subject's mood [2]; [4]): 1599 | Actimood score (subject's mood [1]; [5]): 3 | Actimood score (subject's mood [1]; [11]): 3 | Actimood score (subject's mood [1]; [13]): 3

CC(=O)C1(C)CC2=C(CCCC2(C)C)CC1C (stereo not drawn) [ISO E SUPER, 1-[2,3,8,8-tetramethyl-1,3,4,5,6,7-hexanhydronaphthalen-2-yl]ethanone]
Actimood score (subject's mood [1]; [9]): 2 | Actimood score (subject's mood [1]; [13]): 2 | Actimood score (subject's mood [1]; [12]): 2

COc1ccc(CCC(C)=O)cc1 [FRAMBINON ®, Methoxyphenylbutanone]
Actimood score (subject's mood [1]; [9]): 3

COC(OC)C(C)(C)CC=C(C)C [AMAROCIT ®, 6,6-Dimethoxy-2,5,5-trimethylhex-2-ene]
IRT Score (subject's mood [2]; [7]): 1763 | Actimood score (subject's mood [1]; [11]): 3 | Actimood score (subject's mood [1]; [8]): 3

CCCCCCCCC1CCC(=O)O1 (stereo not drawn) [DODECALACTONE GAMMA 10% DPG, gamma-Dodecalactone]
Actimood score (subject's mood [1]; [3]): 1

CC(=O)OC1CCC(C(C)(C)C)CC1 (stereo not drawn) [ORYCLON HC, (4-tert-butylcyclohexyl) acetate]
Actimood score (subject's mood [1]; [3]): 1

O=C1CCCCCCCC=CCCCCCCO1 [AMBRETTOLIDE HC SUPREME, Oxacycloheptadec-10-en-2-one]
Actimood score (subject's mood [1]; [3]): 2

CCc1ccc(CC(C)(C)C=O)cc1 [FLORALOZONE, 3-(4-ethylphenyl)-2,2-dimethylpropanal]
Actimood score (subject's mood [1]; [8]): 3

CC(C=O)Cc1ccc2c(c1)OCO2 (stereo not drawn) [3-(1,3-benzodioxol-5-yl)-2-methyl-propanal]
IRT Score (subject's mood [2]; [7]): 742

O=Cc1ccc2c(c1)OCO2 [HELIOTROPIN, 1,3-benzodioxole-5-carbaldehyde]
Actimood score (subject's mood [1]; [12]): 2

CC(=O)/C=C/C1=C(C)CCCC1(C)C [IONONE BETA, (E)-4-(2,6,6-trimethylcyclohexen-1-yl)but-3-en-2-one]
Actimood score (subject's mood [1]; [9]): 3 | Actimood score (subject's mood [1]; [12]): 3

CC1COCc2cc3c(cc21)C(C)(C)C(C)C3(C)C (stereo not drawn) [GALAXOLIDE PURE, 4,6,6,7,8,8-hexamethyl-1,3,4,7-tetrahydrocyclopenta[G]isochromene]
Actimood score (subject's mood [1]; [14]): 2 | Actimood score (subject's mood [1]; [6]): 3

CCCCCCCC1CCC(=O)O1 (stereo not drawn) [ALDEHYDE C14 SO-CALLED, 5-heptyltetrahydrofuran-2-one]
Actimood score (subject's mood [1]; [10]): 2

C=C1CCC=C(C)CCC2C1CC2(C)C (stereo not drawn) [CARYOPHYLLENE NAT. RECT., 4,11,11-trimethyl-8-methylene-bicyclo[7.2.0]undec-4-ene]
Actimood score (subject's mood [1]; [6]): 3 | Actimood score (subject's mood [1]; [10]): 3

CCCCCCOC(C)=O [HEXYL ACETATE, hexyl acetate]
Actimood score (subject's mood [1]; [11]): 1 | Actimood score (subject's mood [1]; [9]): 2

CC/C=C\CCOC(=O)OC [LEAFOVERT ®, (Z)-Hex-3-en-1-yl methyl carbonate]
Actimood score (subject's mood [1]; [9]): 3 | Actimood score (subject's mood [1]; [10]): 0 | Actimood score (subject's mood [1]; [12]): 2

CC/C=C\CCOC(C)=O [HEXENYL ACETATE CIS-3 10% DPG, Hexenyl acetat]
Actimood score (subject's mood [1]; [12]): 0

CC(C)C1CC=C(CCC=O)CC1 (single isomer, unassigned; (+)) [LILYBELLE ®, (+)-3-(4-Isopropylcyclohexen-1-yl)propanal]
Actimood score (subject's mood [1]; [8]): 3 | Actimood score (subject's mood [1]; [12]): 0

Cc1ccc2c(c1)OCC(=O)CO2 [CALONE, 7-methyl-1,5-benzodioxepin-3-one]
IRT Score (subject's mood [2]; [7]): 2830 | Actimood score (subject's mood [1]; [11]): 3 | Actimood score (subject's mood [1]; [8]): 3 | Actimood score (subject's mood [1]; [9]): 3 | Actimood score (subject's mood [1]; [12]): 3

CC(CC=O)CCCC(C)(C)O (stereo not drawn) [HYDROXY CITRONELLAL, 7-hydroxy-3,7-dimethyl-octanal]
IRT Score (subject's mood [2]; [4]): 1283 | Actimood score (subject's mood [1]; [5]): 3 | Actimood score (subject's mood [1]; [10]): 1

CCCC(C)C(=O)OCC (stereo not drawn) [MANZANATE, ethyl-2-methylpentanoate]
Actimood score (subject's mood [1]; [9]): 3

Cc1cccc(CC(C)(C)CO)c1 [MAJANTOL ®, beta,beta-3-Trimethyl-benzenepropanol]
Actimood score (subject's mood [1]; [10]): 2 | Actimood score (subject's mood [1]; [13]): 2

CC(C)(C)c1ccc(CCC=O)cc1 [BOURGEONAL, 3-(4-tert-butylphenyl)propanal]
IRT Score (subject's mood [2]; [4]): 1045 | Actimood score (subject's mood [1]; [5]): 3 | Actimood score (subject's mood [1]; [6]): 3 | Actimood score (subject's mood [1]; [10]): 2

COC(=O)c1ccccc1N [METHYL ANTHRANILATE, Methyl anthranilate]
Actimood score (subject's mood [1]; [10]): 0

CC(C)=CCCC(C)CCO (stereo not drawn) [CITRONELLOL 950, 3,7-dimethyloct-6-en-1-ol]
Actimood score (subject's mood [1]; [10]): 1

CCC(=O)OCC(C)(C)OC(C)C1CCCC(C)(C)C1 (stereo not drawn) [HELVETOLIDE, [2-[1-(3,3-dimethylcyclohexyl)ethoxy]-2-methyl-propyl]propanoate]
Actimood score (subject's mood [1]; [14]): 2 | Actimood score (subject's mood [1]; [3]): 3 | Actimood score (subject's mood [1]; [6]): 3 | Actimood score (subject's mood [1]; [10]): 2

O=C1CCCCCCCCCCCC(=O)OCCO1 [ETHYLENE BRASSYLATE, 1,4-dioxacycloheptadecane-5,17-dione]
IRT Score (subject's mood [2]; [4]): 1177 | Actimood score (subject's mood [1]; [5]): 3 | Actimood score (subject's mood [1]; [3]): 2 | Actimood score (subject's mood [1]; [10]): 2 | Actimood score (subject's mood [1]; [13]): 3

CC1=CC(C)C(C=O)CC1 (stereo not drawn) [VERTOCITRAL, 2,4-Dimethylcyclohex-3-ene-1-carbaldehyde]
Actimood score (subject's mood [1]; [11]): 1 | Actimood score (subject's mood [1]; [12]): 0

COC(=O)c1c(C)cc(O)c(C)c1O [EVERNYL 10% DPG, Methyl-2,4-dihydroxy-3,6-dimethyl-benzoate]
Actimood score (subject's mood [1]; [3]): 1

OCCc1ccccc1 [PHENYLETHYL ALCOHOL BA FREE, 2-phenylethanol]
Actimood score (subject's mood [1]; [3]): 2 | Actimood score (subject's mood [1]; [10]): 1

CC(=O)/C=C/C1C(C)=CCCC1(C)C (stereo not drawn) [IONONE ALPHA, (E)-4-(2,6,6-trimethylcyclohex-2-en-1-yl)but-3-en-2-one]
Actimood score (subject's mood [1]; [6]): 3 | Actimood score (subject's mood [1]; [10]): 1

CCCCC[C@@H]1C(=O)CC[C@H]1CC(=O)OC (racemic) [HEDIONE, methyl-2-[RAC-(1S,2S)-3-oxo-2-pentyl-cyclopentyl]acetate]
Actimood score (subject's mood [1]; [8]): 2 | Actimood score (subject's mood [1]; [9]): 0 | Actimood score (subject's mood [1]; [3]): 2 | Actimood score (subject's mood [1]; [12]): 0

CC(=O)C1CC/C(C)=C/CC/C(C)=C/C/C=C/1C (stereo not drawn) [TRIMOFIX O, 1-[(2E,5E,9E)-2,6,10-trimethylcyclododeca-2,5,9-trien-1-yl]ethanone]
Actimood score (subject's mood [1]; [14]): 2

C=CCCCCOC(=O)C(C)CC (stereo not drawn) [FRUCTATE ®, Hex-5-enyl 2-methylbutanoate]
Actimood score (subject's mood [1]; [13]): 0

O=C(OCc1ccccc1)c1ccccc1O [BENZYL SALICYLATE, benzyl 2-hydroxybenzoate]
Actimood score (subject's mood [1]; [10]): 1
